Structures can show the parent of a compound that is named as a salt. Where two headings read alike, the source gives them in different places.
Tested on: sensitivity to distension of th colonic wall
Assay: Glass bead expulsion test (time between rectal insertion and expulsion of bead)
Format: in vivo, male albino mice
Conditions: Mus musculus, 1 h, drug given one hour prior to glass bead insertion, ED50 = dose causing an activity index of 2
Excerpt: The disorder is characterized by abdominal pain, diarrhea, constipation and like symptoms caused by excessive sensitivity to distension of the bowel by the presence of intestinal gas and/or fecal material. The extent to which a compound is effective in providing relief may be determined by a test in which a glass bead is inserted into the rectum and the lapse of time between insertion and expulsion of the bead determined. Compounds which are effective in decreasing the sensitivity to distension of th colonic wall delays the expulsion of the bead. The test is carried out with male albino mice of 18-25 grams body weight using groups of five mice for each compound dose tested. The initial screen dose selected for all compounds is 50 milligrams per kilogram of body weight (mg/kg) administered orally in a volume of 0.1 milliliter per 10 grams of body weight. The control groups receive the vehicle, 0.5 percent methocel, used for both oral and intraperitoneal administration. The mice are fasted one hour before testing and the test drugs are given one hour prior to glass bead insertion. At the end of the pretreatment time, the mouse is picked up and held firmly in one hand with his abdomen facing the technician. The glass bead of 3 millimeters in diameter is positioned at the rectum and using a pinching action with a thumb and forefinger, the bead is pushed into the rectum. Then using a glass rod of 3 millimeters in diameter which has been lubricated with 0.5 percent methocel to facilitate insertion, the glass bead is pushed up into the rectum a distance of 2 centimeters using a slow gentle turning motion. The mice are timed as a group using the last mouse inserted as zero time and the number of beads expelled in a group at different timed intervals are recorded. The groups are based on timed intervals of 0 to 5 minutes, 5 to 10 minutes, 10 to 20 minutes, 20 to 40 minutes and greater than 40 minutes. They are given the activity index values of 0, 1, 2, 3 and 4, respectively. Mice who have not expelled their beads by the 40-minute cutoff time are examined for perforations. Those mice whose colons are perforated are eliminated from the group. The sum of the values divided by the number of mice or beads is termed the activity index for the drug tested. The ED50 is determined by regression lines using the method of least squares. The ED50 is arbitrarily assigned as that dose causing an activity index of 2. The results of this test employing intraperitoneal and oral administration of N-aryl-N'-(2-imidazolidinylidene)urea compounds are shown in Table I.

[1] = ip, intraperitoneal, read-out: ED50 Intraperitoneal

Which results are given for `Cl.O=C(N=C1NCCN1)Nc1c(Br)cccc1Br` [2,6-diBr-.phi., N-(2,6-dibromophenyl)-N'-(2-imidazolidinylidene)urea hydrochloride]?
ED50 (oral, read-out: ED50 Per Os): 38 mg/kg; ED50 [1]: 9 mg/kg

With `CCc1cccc(C)c1NC(=O)N=C1NCCN1` [2-C2 H5,6-CH3 -.phi., N-(2-Ethyl-6-methylphenyl)-N'-(2-imidazolidinylidene)urea. Fumarate (3:2)] as the molecule, how does the ED50 (oral, read-out: ED50 Per Os) read?
The ED50 was 121 mg/kg.

What about the ED50 [1] of the same molecule?
Its ED50 is 43 mg/kg.

Which ED50 (oral, read-out: ED50 Per Os) does the source give for `Cl.O=C(N=C1NCCN1)Nc1c(Cl)cccc1Cl` [2,6-diCl-.phi., N-(2,6-Dichlorophenyl)-N'-(2-imidazolidinylidene)urea Hydrochloride] here?
Its ED50 is 13.7 mg/kg.

And the ED50 [1]?
The ED50 was 7 mg/kg.

What does the source list for `Cc1cccc(Cl)c1NC(=O)N=C1NCCN1.Cl` [2-Cl,6-CH3 -.phi., N-(2-chloro-6-methylphenyl)-N'-(2-imidazolidinylidene)urea hydrochloride]?
ED50 (oral, read-out: ED50 Per Os): 35 mg/kg; ED50 [1]: 8 mg/kg

What does the source list for `Cc1cccc(C)c1NC(=O)N=C1NCCN1` [2,6-di(CH3)-.phi., N-(2,6-dimethylphenyl)-N'-(2-imidazolidinylidene)urea]?
ED50 (oral, read-out: ED50 Per Os): 16 mg/kg; ED50 [1]: 12 mg/kg
